The test concerns BDF1 mice, P388 leukemia ip, median survival T/C. The test is described as follows: NCI In Vivo Anticancer Drug Screen. Data for tumor model P388 Leukemia (intraperitoneal) in B6D2F1 (BDF1) mice. The following applies: endpoint: median survival time, higher = longer survival. Summed up:
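In tumour-bearing mice, survival after compound treatment is set against the vehicle group and given as a quotient.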

[1] abbreviates: dose: 50.0 mg/kg/injection, schedule: Q01DX009 (ip), vehicle: saline with Tween-80.
Where [2] appears, read: dose: 100.0 mg/kg/injection, schedule: Q01DX009 (ip), vehicle: saline with Tween-80.
Setting [3] is: dose: 200.0 mg/kg/injection, schedule: Q01DX009 (ip), vehicle: saline with Tween-80.
Where [4] appears, read: dose: 25.0 mg/kg/injection, schedule: Q01DX009 (ip), vehicle: saline with Tween-80.
The mark [5] stands for this setting: dose: 100.0 mg/kg/injection, schedule: Q04DX003 (ip), vehicle: saline with Tween-80.
The mark [6] stands for this setting: dose: 200.0 mg/kg/injection, schedule: Q04DX003 (ip), vehicle: saline with Tween-80.
Setting [7] is: dose: 400.0 mg/kg/injection, schedule: Q01DX009 (ip), vehicle: saline with Tween-80.
Setting [8] is: dose: 400.0 mg/kg/injection, schedule: Q04DX003 (ip), vehicle: saline with Tween-80.
[9] abbreviates: dose: 25.0 mg/kg/injection, schedule: Q01DX009 (ip), vehicle: saline.
[10] abbreviates: dose: 50.0 mg/kg/injection, schedule: Q01DX009 (ip), vehicle: saline.

Experimental findings from PubChem BioAssay AID328 (DTP/NCI, 2004) are described below.

Values joined by “and” are separate entries in the source; they are usually repeats but may differ in a detail not shown here. Equal entries are not always repeated. Inconclusive results and toxic doses are left out. Residues, ends and D or L forms follow the SMILES beside them. *: point of attachment. Cbz = O=C(OCc1ccccc1)*; OtBu = CC(C)(C)O*

On to `CC(C)=CCC1=C(O)c2ccccc2C(=O)C1=O`, for which the T/C reads like this: (dose: 25.0 mg/kg/injection, schedule: Q#A X018 (oral), vehicle: other) 100 % of control; (dose: 50.0 mg/kg/injection, schedule: Q01DX010 (ip), vehicle: other) 104 % of control; (dose: 50.0 mg/kg/injection, schedule: Q01DX010 (ip), vehicle: water) 118 % of control; (dose: 50.0 mg/kg/injection, schedule: Q#A X018 (oral), vehicle: other) 100 % of control; (dose: 50.0 mg/kg/injection, schedule: Q#A X020 (ip), vehicle: other) 100 % of control; (dose: 75.0 mg/kg/injection, schedule: Q01DX010 (ip), vehicle: water) 100 % of control and 109 % of control. Further, the T/C by setting is: (dose: 100.0 mg/kg/injection, schedule: Q01DX010 (ip), vehicle: other) 118 % of control; (dose: 100.0 mg/kg/injection, schedule: Q#A X018 (oral), vehicle: other) 100 % of control; (dose: 100.0 mg/kg/injection, schedule: Q#A X020 (ip), vehicle: other) 90 % of control; (dose: 125.0 mg/kg/injection, schedule: Q01DX010 (ip), vehicle: water) 95 % of control; (dose: 150.0 mg/kg/injection, schedule: Q01DX010 (ip), vehicle: water) 90 % of control and 104 % of control; (dose: 150.0 mg/kg/injection, schedule: Q#A X018 (ip), vehicle: other) 100 % of control. In addition, the T/C (dose: 150.0 mg/kg/injection, schedule: Q#A X020 (ip), vehicle: other) is 120 % of control.
With `CCSC1(SCC)C(=O)OC2=C(CCCC2)C1N(C)c1ccccc1` (stereo unspecified), the T/C was 96 % of control under setting [1], 94 % of control under setting [2] and 91 % of control under setting [3].
Consider `O=[N+]([O-])c1ccc(N=Nc2c(O)ccc3ccccc23)cc1`, for which the T/C by setting is: under setting [4], 109 % of control; under setting [1], 100 % of control; (dose: 50.0 mg/kg/injection, schedule: Q04DX003 (ip), vehicle: saline with Tween-80) 111 % of control; under setting [2], 96 % of control; under setting [5], 120 % of control; under setting [3], 105 % of control. For the same compound, the T/C was 110 % of control under setting [6], 106 % of control under setting [7] and 105 % of control under setting [8].
Turning to `Cc1c(O)c2c(c(O)c1Cc1ccc(CN)cc1)C(=O)c1ccccc1C2=O`, the T/C is 90 % of control (dose: 12.5 mg/kg/injection, schedule: Q01DX009 (ip), vehicle: water) and 114 % of control (dose: 25.0 mg/kg/injection, schedule: Q01DX009 (ip), vehicle: water).
As for `CCCCCCCCCCC(O)CCCCCCCCCC`, the T/C reads like this: under setting [1], 100 % of control; under setting [2], 95 % of control; under setting [3], 90 % of control.
Turning to `NCC(O)CSc1ccccc1` (stereo unspecified), the T/C runs as follows: under setting [9], 95 % of control; under setting [10], 100 % of control; (dose: 100.0 mg/kg/injection, schedule: Q01DX009 (ip), vehicle: saline) 106 % of control.
As for `CCCCN(C)N=Nc1ccc(CCC(=O)OCC)cc1`, the T/C is 100 % of control (dose: 78.0 mg/kg/injection, schedule: Q04DX003 (ip), vehicle: saline with Tween-80); 118 % of control (dose: 118.0 mg/kg/injection, schedule: Q04DX003 (ip), vehicle: saline with Tween-80); 104 % of control (dose: 177.0 mg/kg/injection, schedule: Q04DX003 (ip), vehicle: saline with Tween-80); 118 % of control under setting [6]; 150 % of control and 168 % of control under setting [8]; 184 % of control (dose: 600.0 mg/kg/injection, schedule: Q04DX003 (ip), vehicle: saline with Tween-80).
On to `N#Cc1c2c(c(O)[nH]c1=O)CCCC2`, for which the T/C reads like this: under setting [2], 120 % of control; under setting [3], 105 % of control; under setting [7], 120 % of control.
As to `COC(=O)C(Br)C(OC)c1ccccc1` (stereo unspecified), the T/C (dose: 100.0 mg/kg/injection, schedule: Q01DX009 (ip), vehicle: Klucel (hydroxypropylcellulose) (HPC)) is 91 % of control; the T/C (dose: 200.0 mg/kg/injection, schedule: Q01DX009 (ip), vehicle: Klucel (hydroxypropylcellulose) (HPC)) is 95 % of control; the T/C (dose: 400.0 mg/kg/injection, schedule: Q01DX009 (ip), vehicle: Klucel (hydroxypropylcellulose) (HPC)) was 95 % of control.
For `CCOC(=O)C1C(=O)NC(=O)CC1C` (stereo unspecified), the T/C was 99 % of control under setting [2]; 96 % of control under setting [5]; 101 % of control under setting [3]; 99 % of control under setting [6]; 105 % of control under setting [7]; 107 % of control under setting [8].
As for `CN(C)CCCN1c2ccccc2Sc2ccc(C(F)(F)F)cc21`, the T/C runs as follows: (dose: 6.25 mg/kg/injection, schedule: Q01DX009 (ip), vehicle: saline) 100 % of control; (dose: 6.25 mg/kg/injection, schedule: Q04DX003 (ip), vehicle: saline with Tween-80) 108 % of control; (dose: 8.9 mg/kg/injection, schedule: Q01DX009 (ip), vehicle: saline) 118 % of control; (dose: 9.37 mg/kg/injection, schedule: Q01DX009 (ip), vehicle: saline) 110 % of control; (dose: 12.5 mg/kg/injection, schedule: Q04DX003 (ip), vehicle: saline with Tween-80) 113 % of control; (dose: 12.5 mg/kg/injection, schedule: Q04DX003 (ip), vehicle: saline) 108 % of control. Also, the T/C was 109 % of control (dose: 13.4 mg/kg/injection, schedule: Q01DX009 (ip), vehicle: saline); 122 % of control (dose: 16.5 mg/kg/injection, schedule: Q01DX009 (ip), vehicle: saline); 118 % of control (dose: 20.0 mg/kg/injection, schedule: Q01DX009 (ip), vehicle: saline); 100 % of control under setting [9]; 113 % of control (dose: 25.0 mg/kg/injection, schedule: Q04DX003 (ip), vehicle: saline with Tween-80); 109 % of control (dose: 25.0 mg/kg/injection, schedule: Q04DX003 (ip), vehicle: saline). For the same compound, the T/C runs as follows: (dose: 37.5 mg/kg/injection, schedule: Q01DX009 (ip), vehicle: saline) 100 % of control; (dose: 37.5 mg/kg/injection, schedule: Q04DX003 (ip), vehicle: saline) 161 % of control; under setting [10], 95 % of control.
Consider `O=C(O)CCC(=O)Nc1ccccc1C(F)(F)F`, for which the T/C was 100 % of control under setting [2], 109 % of control under setting [3] and 90 % of control under setting [7].
Turning to `O=C1/C(=C/c2ccccc2O)SC(=S)N1CCCN1CCOCC1`, the T/C was 95 % of control under setting [1], 100 % of control under setting [2] and 90 % of control under setting [3].
Turning to `CCOC(=O)CCC(C)(C#N)c1ccccc1` (stereo unspecified), the T/C under setting [1] is 100 % of control, the T/C under setting [5] is 95 % of control, the T/C under setting [6] is 91 % of control and the T/C under setting [8] was 100 % of control.
Consider `C1CC[CH]([Sn]([CH]2CCCCC2)[CH]2CCCCC2)CC1`, for which the T/C is 98 % of control (dose: 0.78 mg/kg/injection, schedule: Q01DX009 (ip), vehicle: saline with Tween-80) and 89 % of control (dose: 1.56 mg/kg/injection, schedule: Q01DX009 (ip), vehicle: saline with Tween-80).
For the compound `O=C1CCC(=O)N1C1c2ccccc2Oc2ccccc21`, the T/C reads like this: (dose: 100.0 mg/kg/injection, schedule: Q01DX001 (ip), vehicle: other) 90 % of control; (dose: 200.0 mg/kg/injection, schedule: Q01DX001 (ip), vehicle: other) 90 % of control; (dose: 400.0 mg/kg/injection, schedule: Q01DX001 (ip), vehicle: other) 113 % of control.
Consider `CCN(CC)CCCC(C)Nc1ncnc2oc(C)c(C)c12` (stereo unspecified), for which the T/C is 95 % of control (dose: 6.25 mg/kg/injection, schedule: Q01DX009 (ip), vehicle: saline with Tween-80); 100 % of control (dose: 12.5 mg/kg/injection, schedule: Q01DX009 (ip), vehicle: saline with Tween-80); 100 % of control under setting [4].
`COC(=O)C(CCC(=O)OC(C)(C)C)NC(=O)C(NC(=O)OCc1ccccc1)C(C)C` (stereo not drawn) (Cbz-Val-Glu(OtBu)-OMe; configuration not given here): the T/C is 100 % of control under setting [2], 100 % of control under setting [3] and 95 % of control under setting [7].
Regarding `Cc1cccc(C(=O)NN)c1O`, the T/C was 92 % of control (dose: 25.0 mg/kg/injection, schedule: Q01DX009 (ip), vehicle: saline + alcohol) and 97 % of control (dose: 100.0 mg/kg/injection, schedule: Q01DX009 (ip), vehicle: saline + alcohol).
Regarding `CCCC/C=C/CO`, the T/C under setting [1] was 108 % of control and the T/C under setting [2] was 103 % of control.
